Experimental data from publication PMC9146374, “Extra Virgin Olive Oil Secoiridoids Modulate the Metabolic Activity of Dacarbazine Pre-Treated and Treatment-Naive Melanoma Cells” (Molecules, 2022).
Several values for one entry are separate records, joined by “and”; a condition that tells them apart may be missing. Equal values may be shown once. Read-outs that look alike come from different tables or passages of the source.

Columns and labels:
[1] = system: A375M metastatic melanoma cell line; assay: MTS assay of metabolic activity (cell viability), 48 h exposure, A375M cells; format: cell-based, human; details: for effect on A375M cells: Figure S5b
Method: (§1) Biological activity upon treatment with EVOO-PEs, DTIC, OCEIN, and OCAL was evaluated using an MTS assay in in vitro experimental models, including the A375 and A375M cancer cell lines and HaCaT immortalized cell line. […] Due to the fast cell growth rate, a longer incubation period or denser initial seeding caused the overgrowth of untreated cells. In comparison, a shorter incubation period or lower initial density caused the effect of the test substances to be more difficult to detect. Therefore, the experiments were performed within a 48-hour timeframe. In addition, to avoid the misinterpretation of the results, we checked whether the vehicle, which was DMSO for the test substances, had any effect on metabolic activity by exposing each cell type to 0.2 and 0.4% DMSO, i.e., to the highest final DMSO concentrations achieved with the highest final concentrations of test substances. […] Accordingly, the effects of the test substances were determined as relative biological activities (in terms of cell viability, i.e., cell survival) compared to the untreated cells (controls). The cells were treated with a series of dilutions made by diluting full strength (100%) EVOO-PE to concentrations of 0.025–0.400 % (v/v) of EVOO-PE in the medium.
Cells were grown in complete cell culture media, consisting of RPMI 1640, 2 mmol/L glutamine, 10% heat-inactivated foetal bovine serum (FBS), penicillin (100 IU/mL; 1 IU 67.7 µg/mL), and streptomycin (100 µg/mL). Cultures were maintained in a moisturized atmosphere with 5% CO2 at 37 °C and 95% relative humidity. All experiments were performed on cells between passages 4 and 8. The biological activity of the three EVOO-Pes, DTIC, OCEIN, and OCAL, as well as biological activity of the three EVOO-PEs following 6 h pre-incubation with DTIC was determined using a CellTiter 96®AQueous One Solution Cell Proliferation Assay. In short, 100 µL of cell cultures was seeded into 96-well tissue culture plates (A375 and HaCaT at a concentration of 2 × 10^3 cells/well, A375M at 7 × 10^3 cells/well). The next day, the medium was aspirated and media containing different concentrations of compounds were added to each well. All test compounds except DTIC were initially dissolved in DMSO and serially diluted in culture medium to obtain the final concentrations. DTIC was initially dissolved in culture medium, warmed to 37 °C, activated during 1 h exposure to light, and diluted in culture medium. […] The cells were incubated for 48 h before biological activity was measured. […] After 1.5 h of incubation in the dark, the absorbance was measured at a wavelength of 490 nm using a microplate reader, Victor2-1420 Multilabel Counter (PerkinElmer, Yokohama, Japan). […]

A375 melanoma cell line = assay: MTS assay of metabolic activity (cell viability), 48 h exposure, A375 cells; format: cell-based, human; details: for IC60 / IC50: A375, 48 h, MTS, ± SEM; for IC60: concentration decreasing biological activity to 60%
Method: as §1
(§2) Cells were grown in complete cell culture media, consisting of RPMI 1640, 2 mmol/L glutamine, 10% heat-inactivated foetal bovine serum (FBS), penicillin (100 IU/mL; 1 IU 67.7 µg/mL), and streptomycin (100 µg/mL). Cultures were maintained in a moisturized atmosphere with 5% CO2 at 37 °C and 95% relative humidity. All experiments were performed on cells between passages 4 and 8. The biological activity of the three EVOO-Pes, DTIC, OCEIN, and OCAL, as well as biological activity of the three EVOO-PEs following 6 h pre-incubation with DTIC was determined using a CellTiter 96®AQueous One Solution Cell Proliferation Assay. In short, 100 µL of cell cultures was seeded into 96-well tissue culture plates (A375 and HaCaT at a concentration of 2 × 10^3 cells/well, A375M at 7 × 10^3 cells/well). The next day, the medium was aspirated and media containing different concentrations of compounds were added to each well. All test compounds except DTIC were initially dissolved in DMSO and serially diluted in culture medium to obtain the final concentrations. DTIC was initially dissolved in culture medium, warmed to 37 °C, activated during 1 h exposure to light, and diluted in culture medium. The controls contained the test model cells and culture medium (containing either the complete medium or the DMSO in the highest final concentration, 0.2% and 0.4%) but no test compounds. The cells were incubated for 48 h before biological activity was measured. When investigating the combined effect, we exposed cells to DTIC for 6 h, removed the medium, and exposed the cells to medium containing EVOO-PE extracts for the next 24 h. In addition to the non-treated cells, the controls for experiments with DTIC pre-incubation were cells that had been exposed to DTIC for 6 h and cultured in a complete medium afterwards (without EVOO-PE). After incubation, media were aspirated, and 90 µL of serum-free medium containing MTS was added, according to the manufacturer’s instructions. After 1.5 h of incubation in the dark, the absorbance was measured at a wavelength of 490 nm using a microplate reader, Victor2-1420 Multilabel Counter (PerkinElmer, Yokohama, Japan). A negative control (medium without cells) was used as a blank. All experiments were performed in hexaplicate.
(§3) The GraphPad Prism software version 9.0.0 for Windows (GraphPad Software, San Diego, CA, USA), was used for the determination of inhibitory concentration as well as for statistical analysis. The normality of the data distribution was accessed using Kolmogorov–Smirnov and Shapiro–Wilk tests. The IC60 and IC50 values (concentrations that reduced cell growth to 60% or 50% of the initial value, respectively) were determined using a nonlinear regression curve fit. […]

[2] = system: HaCaT immortalized keratinocytes; assay: MTS assay of metabolic activity (cell viability), 48 h exposure, HaCaT cells; format: cell-based; details: ± SEM, DTIC applied up to 1000 µM, italic values extrapolated; for IC50: Homo sapiens
Method: as §1, §2, §3

A375 cells = details: cited from earlier work; for IC50: homemade isolated OCAL purified to 95%
501Mel melanoma cells = system: 501Mel melanoma cells; set-up: method as in earlier work; details: ref 22 (Carpi et al.); read-out: IC50 of OCEIN on 501Mel melanoma cells; cited from earlier work

IC50 ([1]; Homo sapiens, A375M, ± SEM, DTIC applied up to 1000 µM, interpret with caution)	IC50 (A375 melanoma cell line; Homo sapiens, A-375, 48 h)	IC50 (A375 melanoma cell line)	SMILES	IC60 ([1]; A375M, ± SEM, DTIC applied up to 1000 µM, interpret with caution)	IC60 (A375 melanoma cell line)	IC50 [2]	IC60 [2]	effect on A375M cells [1]	viability at 60 µM (A375 melanoma cell line; Homo sapiens, A-375, 60 µM OCAL, cell line not given, read-out: viability compared to control)	viability compared to control (A375 cells; 60 µM OCAL (highest applied), cell line not given, ref 25 (Gu et al.))	IC50 (A375 cells; ref 24 (Fogli et al.))	IC50 (A375 cells; ref 25 (Gu et al.))	IC50 (501Mel melanoma cells)
872 ± 62.2 µM	362 µM		CN(C)/N=N/c1[nH]cnc1C(N)=O [DTIC, dacarbazine]	709.780 ± 99.634 µM	214.358 ± 13.449 µM	> 1000 µM	1137 ± 93.752 µM						
	67 µM	67.5 ± 1.86 µM	C/C=C(/C=O)[C@@H](CC=O)CC(=O)OCCc1ccc(O)cc1 [OCAL, oleocanthal]		58.488 µM and 58.488 ± 1.836 µM	130 ± 3.21 µM	112.827 ± 2.904 µM	failed to provoke any effect	~80%	~ 80%	13.6 µM	~20 µM	
	112 µM	113 ± 4.92 µM	CC=C(C=O)C(CC=O)CC(=O)OCCc1ccc(O)c(O)c1 (centres unmarked) [OCEIN, oleacein]		101.052 µM and 101.052 ± 4.610 µM	114 ± 2.3 µM	103.061 ± 2.086 µM	failed to provoke any effect					82 µM
